Where two headings read alike, the source gives them in different places.
How the values were obtained:
[1] = test system: DMBA-induced breast cancer; format: in vivo; conditions: for changes in body weight: vs control; for general conditions: deaths: 15 rats; for day from which development of tumors was confirmed: control: day 35
Procedure: The antitumor effects of cellobiose were examined using the rat DMBA-induced breast cancer model. Specifically, 7-week-old female rats were grouped using body weight as an index, and then 7,12-dimethylbenz[a]anthracene (DMBA) (20 mg/mL/rat) was forcibly administered orally. Two doses of the test substance (4 and 40 mg/kg/day) were forcibly administered orally once a day from the day after grouping for 12 consecutive weeks.
Fifty-two 6-week-old female rats, Crl: CD (SD) (SPF), were purchased from Charles River Laboratories, Japan Inc. on Mar. 28, 2012 (Number of rats ordered: 50).
Animals, for which no abnormalities had been confirmed as a result of observation of general conditions during the quarantine and conditioning periods, were selected and then grouped by the stratified continuous randomization method using body weight as an index based on the following table of group composition (Table 1). The remaining animals were excluded from the test groups on the day of grouping and then disposed of after excessive euthanization with ether.
DMBA was weighed to the required amount using an electronic even Sartorius Laboratory balance (SARTORIUS K.K.). The weighed DMBA was added to a beaker containing sesame oil, and then the solution was stirred using a mighty magnetic stirrer (Koike precision instruments) until the DMBA was completely dissolved. After dissolution, the solution was transferred to a volumetric graduated cylinder and then diluted to a concentration of 20 mg/mL. Upon preparation, countermeasures were taken against chemical hazards to avoid inhalation and adhesion to skin by wearing masks, safety eyeglasses, and gloves. Preparation was performed before use. Any carcinogen remaining after administration was treated as medical waste.
The carcinogen was administered to each animal after grouping. Specifically, the carcinogen was forcibly administered orally at a dosage of 1 mL/animal using sonde for oral administration (disposable sonde for oral administration, FUCHIGAMI) and glass syringes (disposable syringes, TERUMO Corporation). Administration was performed using masks, safety eyeglasses and gloves in order to avoid inhalation and adhesion to skin.
Next, the test substance was weighed to the required amount using an electronic Sartorius Analytic balance (SARTORIUS K.K.), and then dissolved in the medium. The resultant was transferred to a volumetric graduated cylinder, and then diluted to concentrations of 0.8 mg/mL and 8.0 mg/mL. Preparation was performed before use. The solution of the test substance (to be administered) that had remained after administration was diluted with a large volume of tap water and then discarded.
Administration of the test substance began the day after grouping (designated as day 1). The test substance was forcibly administered orally once a day for 12 consecutive weeks.
Upon administration, the test substance solution was forcibly administered orally at 5 mL/kg/day using sonde for oral administration (disposable sonde for oral administration, FUCHIGAMI) and glass syringes (disposable syringes, TERUMO Corporation) according to the table of group composition. The fluid volume administered was calculated based on the body weight measured on the day closest to the date of administration.
After administration of the carcinogen, the general conditions were observed every day. Body weight was measured once a week.
When the development of tumors was confirmed, the number of tumors developed in each animal was measured, and then the tumor volume estimate (mm^3) of each tumor was calculated once a week. In addition, the tumor volume estimate (mm^3) of each tumor was found by shaving the hair around the relevant tumor, measuring the tumor size (major axis “a” and minor axis “b” (mm)) using a vernier caliper, calculating according to the following formula, and then finding the sum of tumor volume estimates of the tumors.
Tumor volume estimate (mm^3) of each tumor=0.5 ×a×b^2 […]

[2] = test system: HeLa (human cervical cancer-derived cell line); experiment: XTT assay, effect on cell survival (HeLa); format: cell-based
Source text: (§1) The presence or the absence of the selective cytotoxic activity of the test substance (cellobiose) was examined on various established cell lines.
(§2) Cell species: HeLa (human cervical cancer-derived cell line), HaCaT (human-derived immortalized keratinocyte) and Hep-G2 (human liver cancer-derived cell line)
(§3) (Thawing and Passage Culture of Cells) • (1) HeLa, HaCaT, and Hep-G2 cells were thawed and then cultured in various specialized media. • (2) Cells were passaged 2 to 3 times. • (3) Cells that had recovered their growth capacity were used for the test. […]

[3] = test system: HaCaT (human-derived immortalized keratinocyte); experiment: XTT assay, effect on cell survival (HaCaT); format: cell-based
Source text: as §1, §2, §3

[4] = test system: Hep-G2 (human liver cancer-derived cell line); experiment: XTT assay, effect on cell survival (Hep-G2); format: cell-based
Source text: as §1, §2, §3

[5] = test system: HeLa cells; experiment: Confirmation of the performance of cell proliferation kit (XTT) with HeLa; format: cell-based, human; conditions: 500 μM, 3 hours
Procedure: (Confirmation of the Performance of Cell Proliferation Kit (XTT)) • (1) HeLa cells were seeded in 16 wells of a 96-well plate at 1×10^4 cells/100 μL/well. • (2) Cells were cultured for 24 hours in a CO2 incubator. • (3) Dexamethasone was added at […] concentrations of 0 (control), 10, 100, and 500 μM (N=4). • (4) After addition, cells were cultured for 3 hours in the CO2 incubator. • (5) 50 μL of an XTT reagent was added. • (6) After addition, cells were cultured for 3 hours in the CO2 incubator. • (7) Absorbance was measured at 450 nm to 500 nm (ref.: 630 nm to 690 nm).

[6] = any concentration (0.001-10 mg/mL), vs cells before addition

SMILES: O=C[C@H](O)[C@@H](O)[C@H](O[C@@H]1O[C@H](CO)[C@@H](O)[C@H](O)[C@H]1O)[C@H](O)CO [cellobiose]
- effect on development of breast cancer induced by DMBA (overall conclusion) ([1]; 4 and 40 mg/kg/day oral, 12 weeks): suppresses the development of breast cancer that is induced by carcinogenic DMBA
- changes in body weight ([1]; high-dose group 40 mg/kg/day oral once a day, 12 weeks): very similar changes to the control group
- general conditions: deaths ([1]; high-dose group 40 mg/kg/day oral): one death was confirmed on day 76
- day from which development of tumors was confirmed ([1]; high-dose group 40 mg/kg/day): 49 days
- number of animals having developed tumors ([1]; high-dose group 40 mg/kg/day, day 49): 2
- number of animals having developed tumors ([1]; high-dose group 40 mg/kg/day, day 84): 11
- tumor volume estimate vs control ([1]; high-dose group 40 mg/kg/day, days 42 and 49): significantly lower than those of the control group
- number of animals having developed tumors ([1]; high-dose group 40 mg/kg/day, until day 42): no development of tumors was confirmed until day 42
- changes in body weight ([1]; low-dose group 4 mg/kg/day oral once a day, 12 weeks): very similar changes to the control group
- general conditions: deaths ([1]; low-dose group 4 mg/kg/day oral): one death was confirmed on day 4
- wet weight of tumor vs control ([1]; low-dose group 4 mg/kg/day, autopsy after 12 weeks): very similar to those of the control group
- day from which development of tumors was confirmed ([1]; low-dose group 4 mg/kg/day): 49 days
- tumor volume estimate vs control ([1]; low-dose group 4 mg/kg/day, day 42): significantly lower than those of the control group
- number of animals having developed tumors ([1]; low-dose group 4 mg/kg/day, day 49): 4
- number of animals having developed tumors ([1]; low-dose group 4 mg/kg/day, day 84): 11
- number of animals having developed tumors ([1]; low-dose group 4 mg/kg/day, until day 42): no development of tumors was confirmed until day 42
- change in survival rate compared to the control ([2]; 10 mg/mL, 3 hours, XTT): almost no change in survival rate
- dead cells or cell morphological changes (photomicrographs) [2, 6]: no influence of other factors such as an increase in dead cells or cell morphological changes
- change in survival rate compared to the control ([3]; 10 mg/mL, 3 hours, XTT): almost no change in survival rate
- dead cells or cell morphological changes (photomicrographs) [3, 6]: no influence of other factors such as an increase in dead cells or cell morphological changes
- dead cells or cell morphological changes (photomicrographs) ([4]; Hep-G2, any concentration (0.001-10 mg/mL), vs cells before addition): no influence of other factors such as an increase in dead cells or cell morphological changes
- decrease in survival rate (maximum) ([4]; Hep-G2, high concentration of test substance, 3 hours, XTT): ~15%

SMILES: C[C@@H]1C[C@H]2[C@@H]3CCC4=CC(=O)C=C[C@]4(C)[C@@]3(F)[C@@H](O)C[C@]2(C)[C@@]1(O)C(=O)CO [dexamethasone]
- decrease in survival rate [5]: about 40%
